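Where inhibition never reached the appropriate level, the endpoint shown equals the highest concentration tested. Otherwise, values were interpolated linearly from a five-concentration, 48-hour dose response in 96-well plates. TGI is the concentration that stops growth completely.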
Columns and labels:
Assay in all cases: NCI-60 cell line screen, 48 h
A549 NSCLC = system: A549 NSCLC
ACHN renal = system: ACHN renal
K-562 leukemia = system: K-562 leukemia
LOX IMVI melanoma = system: LOX IMVI melanoma
NCI-H522 lung = system: NCI-H522 lung
OVCAR-3 ovarian = system: OVCAR-3 ovarian
OVCAR-5 ovarian = system: OVCAR-5 ovarian
SF-268 CNS = system: SF-268 CNS
SK-MEL-28 melanoma = system: SK-MEL-28 melanoma
SNB-19 CNS = system: SNB-19 CNS
SNB-75 CNS = system: SNB-75 CNS
SW-620 colon = system: SW-620 colon
UACC-62 melanoma = system: UACC-62 melanoma
UO-31 renal = system: UO-31 renal
MCF7 breast = system: MCF7 breast
T-47D breast = system: T-47D breast

| SMILES | TGI (A549 NSCLC) [µM] | TGI (ACHN renal) [µM] | TGI (K-562 leukemia) [µM] | TGI (LOX IMVI melanoma) [µM] | TGI (NCI-H522 lung) [µM] | TGI (OVCAR-3 ovarian) [µM] | TGI (OVCAR-5 ovarian) [µM] | TGI (SF-268 CNS) [µM] | TGI (SK-MEL-28 melanoma) [µM] | TGI (SNB-19 CNS) [µM] | TGI (SNB-75 CNS) [µM] | TGI (SW-620 colon) [µM] | TGI (UACC-62 melanoma) [µM] | TGI (UO-31 renal) [µM] | TGI (MCF7 breast) [µM] | TGI (T-47D breast) [µM] |
| --- | --- | --- | --- | --- | --- | --- | --- | --- | --- | --- | --- | --- | --- | --- | --- | --- |
| CN1C(=O)c2cccc3c([N+](=O)[O-])ccc(c23)C1=O | 26.8 | 21.7 | 25 | 18.9 | 2.91 | 11.4 | 13.4 | 23.5 | 32.9 | 28 | 25.1 | 6.12 | 4.03 | 26.7 | – | – |
| COc1cc([C@@H]2c3cc4c(cc3[C@@H](NC(=O)c3ccc(C(C)=O)cc3)C3COC(=O)[C@@H]32)OCO4)cc(OC)c1O (some centres not stated) | 2.41 | 1.75 | > 100 | 4.68 | 3.89 | 7.61 | 7.69 | > 100 | 33.6 | > 100 | 4.99 | 12.3 | 2.1 | 17.6 | – | – |
| CNC(=O)OC(C)CN1c2ccccc2Sc2ccccc21 (configuration not stated) | > 100 | > 100 | > 100 | > 100 | > 100 | > 100 | > 100 | > 100 | > 100 | > 100 | – | > 100 | > 100 | > 100 | > 100 | > 100 |
| Cc1ccc(-c2n[nH]c(CC#N)n2)cc1 | > 100 | > 100 | > 100 | > 100 | > 100 | > 100 | > 100 | > 100 | > 100 | > 100 | > 100 | > 100 | > 100 | > 100 | > 100 | > 100 |
| COc1ccc(/C=C/c2cc(=O)cc(/C=C/c3ccc(OC)c(O)c3)o2)cc1O | 12.6 | 6.85 | > 100 | 3.95 | > 100 | 6.51 | 24 | > 75.9 | > 100 | > 39 | 22.6 | > 21.8 | 3.53 | 11.5 | 5 | 10.8 |
| CCN(CC)CCNC(=O)c1ccccc1Nc1c(Cl)cccc1Cl | 32.6 | 31.3 | – | 24.3 | – | – | 20.4 | 34.7 | 33 | 30.9 | 23.8 | 29.6 | 32.1 | 22.2 | – | – |
| CCCN(CCC)C(=O)Cc1c2n(c3ccccc13)CCCc1ccccc1-2 | 28.2 | 25.1 | 37.4 | 29.1 | 25.3 | 29.5 | – | 28.5 | 29.9 | 27.7 | 24.4 | 30.2 | 23 | 27.2 | – | – |
| O=C1c2ccccc2N2OC3C4CCC(C4)C3C12c1ccccc1 (configuration not stated) | > 100 | > 100 | > 100 | – | > 100 | – | – | > 100 | > 100 | > 100 | > 100 | > 100 | > 100 | > 100 | – | – |
| CCOC(=O)c1c(N2CCOCC2)[nH]c(=O)c(C(c2ccc(N(C)C)cc2)c2c(O)c(C(=O)OCC)c(N3CCOCC3)[nH]c2=O)c1O | > 100 | > 100 | > 100 | > 100 | > 100 | > 100 | > 100 | > 100 | > 100 | > 100 | > 100 | > 100 | > 100 | > 100 | > 100 | > 100 |
| CCCCCCCCCCCCCCCCCCNc1ccn(C2OC(COP(=O)(O)OCCCCCCCCCCCCCCCC)C(O)C2O)c(=O)n1 (configuration not stated) | > 100 | > 100 | > 100 | > 100 | > 100 | > 100 | > 100 | > 100 | > 100 | > 100 | > 100 | > 100 | > 100 | > 100 | > 100 | > 100 |
| Cc1nnc2sc(-c3ccc(N)cc3)nn12 | > 100 | > 100 | > 100 | – | > 100 | > 100 | > 100 | > 100 | > 100 | > 100 | 95.7 | > 100 | > 100 | > 100 | > 100 | > 100 |
